Source: patent US20240101572A1, “DIHYDROOXADIAZINONE COMPOUND AND PHARMACEUTICAL USE THEREOF” (Japan Tobacco Inc., priority 2022, published 2024)
Read-outs that look alike come from different tables or passages of the source.

Key:
full-length human PLD1 = full-length human PLD1 (Homo sapiens (Human), UniProt Q13393); experiment: Evaluation of human PLD1 enzyme inhibitory activity (Amplex Red / choline oxidase fluorescence); type: biochemical; conditions: for IC50: full-length human PLD1 enzyme, read-out: PLD1 IC50
Method: A method for measuring human PLD1 enzyme inhibitory activity using an enzyme in which a FLAG-tag is added to the N-terminus of full-length human PLD1 (1-1036 amino acids) is shown below.
(§1) DNA fragment in which a FLAG-tag sequence is added to the 5′-end of full-length human PLD1 was amplified by PCR method, using commercially available human PLD1 gene (Promega KK) as a template. The amplified DNA fragment was fused with vector pVL1393 for baculovirus production (Pharmingen) digested with BamHI and EcoRI, using In-Fusion HD Cloning Kit (Takara Bio). The full-length human PLD1-expression plasmid DNA for baculovirus was isolated from Escherichia coli DH5a (TOYOBO) transformed with the obtained In-Fusion reaction product. Next, DNA fragment in which a FLAG-tag sequence is added to the 5′-end of full-length human PLD1 was amplified by PCR method, using the full-length human PLD1-expression plasmid DNA for baculovirus as a template. The amplified DNA fragment was fused with a DNA fragment in which a linker sequence is introduced into pcDNA3.4-TOPO (Life Technologies), using In-Fusion HD Cloning Kit (Takara Bio). The full-length human PLD1-expression plasmid DNA for animal cells was isolated from Escherichia coli DH5a transformed with the obtained In-Fusion reaction product. The base sequence of the full-length human PLD1 cloned into vector was determined by a Dye Terminator method using BigDye Terminator v3.1 Cycle Sequencing Kit (Applied Biosystems). The determined sequence was a sequence in which the FLAG-tag sequence was inserted at the 5′-end of the full-length human PLD1 (GenBank Accession Number: NM_001130081).
(§2) Expi293F cells (Life Technologies) were cultured with shaking using Expi293 Expression Medium (Life Technologies) as a medium at 37° C. in the presence of 8% CO2. The gene introduction reagent PEI was prepared by dissolving Polyethylenimine Max (nominally MW 40,000) (Polysciences) in MilliQ water, adjusting the pH of the solution to 7.0 with NaOH to obtain a 1 mg/mL solution, and then filtering the solution through 0.22 μm filter. The full-length human PLD1-expression plasmid DNA for animal cells was transfected into Expi293F cells using PEI, and after 48 hours of shaking culture, the cells were collected and stored at −80° C.
(§3) To the full-length human PLD1-expressed cells was added a Homogenate buffer (20 mmol/L Na-phosphate pH 7.5, 250 mmol/L NaCl, 1 mmol/L MgCl2, 1% β-OG, 0.05 mmol/L DTT+complete EDTA-free (Roche Diagnostics K.K.)), and the cells were lysed by Microfluidizer Processor M-110EH (Mizuho Kogyo Co., Ltd.). The lysate was centrifuged at 10,100×g at 4° C. for 15 minutes, and the supernatant was collected and filtered through 0.45 μm filter. To the centrifuged supernatant was added ANTI-FLAG M2 Affinity Gel (SIGMA-Aldrich) resin equilibrated with a Homogenate buffer, and the mixed solution was stirred at 4° C. for 1 hr or more. The mixed solution was loaded onto Poly-Prep column, and the resin was washed with a Wash buffer (20 mmol/L Na-phosphate pH 7.5, 150 mmol/L NaCl, 1 mmol/L MgCl2, 0.02% Triton, 0.05 mmol/L DTT). A Wash buffer containing 400 μg/mL DYKDDDDK Peptide (Scrum Inc.) was added to the column to elute the protein bound to the resin. The eluted fractions were subjected to SDS-PAGE followed by CBB staining to identify the fractions containing the full-length human PLD1. The eluted fractions of the full-length human PLD1 were collected and concentrated using Amicon Ultra-15 100k (Merck Millipore). The concentrated fractions were collected, flash-frozen in liquid nitrogen and stored at −80° C.
(§4) A DMSO or test substance solution (the DMSO final concentration: 5%) prepared by diluting DMSO or test substance with an Assay buffer (50 mmol/L HEPES pH 7.5, 80 mmol/L KCl, 3 mmol/L EGTA, 3.6 mmol/L MgCl2, 0.01% NP-40, 0.1% BSA), and the solution was added to a 384 well Assay Plate (Black, Polystyrene, Non-Treated, Cat No. 3573, Corning) by 5 μL/well. […]

full-length human PLD2 = full-length human PLD2 (Homo sapiens (Human), UniProt O14939); experiment: Evaluation of human PLD2 enzyme inhibitory activity (Amplex Red / choline oxidase fluorescence); type: biochemical; conditions: for IC50: full-length human PLD2 enzyme, read-out: PLD2 IC50
Method: A method for measuring human PLD2 enzyme inhibitory activity using an enzyme in which a FLAG-tag is added to the N-terminus of full-length human PLD2 (1-933 amino acids) is shown below.
as §1, with “PLD2” for “PLD1”, “PLD2-expression” for “PLD1-expression”, “NM 002663).” for “NM_001130081).”
as §2, with “PLD2-expression” for “PLD1-expression”
as §3, with “PLD2-expressed” for “PLD1-expressed”, “PLD2.” for “PLD1.”, “PLD2” for “PLD1”
as §4

Sequence of full-length human PLD1 (Q13393 other isoform, or with tags, fused parts or gaps): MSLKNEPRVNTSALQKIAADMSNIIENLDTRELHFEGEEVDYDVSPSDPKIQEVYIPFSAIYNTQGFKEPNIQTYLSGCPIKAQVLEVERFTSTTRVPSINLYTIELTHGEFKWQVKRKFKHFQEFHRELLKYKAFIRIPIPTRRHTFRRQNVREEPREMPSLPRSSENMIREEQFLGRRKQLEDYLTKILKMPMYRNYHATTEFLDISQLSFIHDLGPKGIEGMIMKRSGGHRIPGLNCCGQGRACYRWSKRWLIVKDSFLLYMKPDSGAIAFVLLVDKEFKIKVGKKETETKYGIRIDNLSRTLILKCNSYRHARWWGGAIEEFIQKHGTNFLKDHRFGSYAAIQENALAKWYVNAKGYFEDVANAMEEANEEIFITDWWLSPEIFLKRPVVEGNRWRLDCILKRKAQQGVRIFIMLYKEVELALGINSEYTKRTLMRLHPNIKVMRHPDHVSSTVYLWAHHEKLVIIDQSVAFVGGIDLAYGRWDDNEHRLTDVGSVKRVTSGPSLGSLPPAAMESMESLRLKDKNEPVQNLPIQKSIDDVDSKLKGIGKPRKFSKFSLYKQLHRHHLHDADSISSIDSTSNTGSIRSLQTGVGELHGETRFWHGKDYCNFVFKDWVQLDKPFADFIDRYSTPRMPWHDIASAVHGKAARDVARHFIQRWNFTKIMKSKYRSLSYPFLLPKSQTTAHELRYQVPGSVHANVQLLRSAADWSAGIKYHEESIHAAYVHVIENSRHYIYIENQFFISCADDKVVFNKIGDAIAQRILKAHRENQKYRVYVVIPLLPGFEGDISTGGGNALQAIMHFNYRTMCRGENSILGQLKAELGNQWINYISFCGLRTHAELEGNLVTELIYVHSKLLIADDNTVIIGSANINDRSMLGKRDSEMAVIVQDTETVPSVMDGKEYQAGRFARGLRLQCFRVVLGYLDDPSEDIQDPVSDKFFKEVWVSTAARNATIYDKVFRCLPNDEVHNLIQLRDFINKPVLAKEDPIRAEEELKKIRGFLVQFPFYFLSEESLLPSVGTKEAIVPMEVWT
Sequence of full-length human PLD2 (O14939 whole entry, the tested form may be a part): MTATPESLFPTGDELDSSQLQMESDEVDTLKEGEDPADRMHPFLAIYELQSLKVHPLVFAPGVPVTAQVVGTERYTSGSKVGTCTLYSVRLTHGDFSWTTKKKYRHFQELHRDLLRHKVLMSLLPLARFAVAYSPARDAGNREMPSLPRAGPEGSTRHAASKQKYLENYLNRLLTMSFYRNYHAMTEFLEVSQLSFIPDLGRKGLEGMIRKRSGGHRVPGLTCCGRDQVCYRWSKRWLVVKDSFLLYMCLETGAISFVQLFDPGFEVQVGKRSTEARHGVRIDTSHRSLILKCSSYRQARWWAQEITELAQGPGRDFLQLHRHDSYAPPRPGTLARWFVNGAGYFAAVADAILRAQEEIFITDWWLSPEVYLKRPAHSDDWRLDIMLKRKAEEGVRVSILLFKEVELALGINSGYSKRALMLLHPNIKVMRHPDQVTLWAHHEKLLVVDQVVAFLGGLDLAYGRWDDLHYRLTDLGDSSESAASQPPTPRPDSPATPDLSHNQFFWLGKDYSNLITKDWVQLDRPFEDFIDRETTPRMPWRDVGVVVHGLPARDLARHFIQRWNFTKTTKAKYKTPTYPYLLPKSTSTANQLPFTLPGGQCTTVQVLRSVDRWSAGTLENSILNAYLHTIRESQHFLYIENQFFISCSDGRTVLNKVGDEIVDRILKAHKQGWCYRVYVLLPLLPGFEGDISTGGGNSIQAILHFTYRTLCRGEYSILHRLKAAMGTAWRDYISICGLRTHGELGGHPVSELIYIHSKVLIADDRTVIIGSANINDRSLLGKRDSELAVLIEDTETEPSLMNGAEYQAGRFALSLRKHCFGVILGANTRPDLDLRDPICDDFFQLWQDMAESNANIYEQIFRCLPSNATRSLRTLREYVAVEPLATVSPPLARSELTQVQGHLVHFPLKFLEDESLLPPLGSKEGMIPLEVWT

Structure (SMILES) | IC50 (full-length human PLD1) [µM] | IC50 (full-length human PLD2) [µM] | further results
CNC(=O)C(=O)N[C@@H](C)CN1CCC2(CC1)OC(=O)NN=C2c1ncccc1Br [Example 2-028] | 0.045 | 0.032 | 
C[C@@H](CN1CCC2(CC1)OC(=O)NN=C2c1ccc(F)cc1Br)NC(=O)c1cnn(C)c1 [Example 254] | 0.029 | < 0.01 | 
CNC(=O)C(=O)N[C@@H](C)C[C@]1(C#N)CC[C@@]2(CC1)OC(=O)NN=C2c1ccc(C#N)cc1Br [Example 2-065] | 0.021 | < 0.01 | 
C[C@@H](C[C@H]1CC[C@]2(CC1)OC(=O)NN=C2c1ccc(F)cc1Br)NC(=O)c1cc2cc(F)ccc2[nH]1 [Example 13] | 0.036 | < 0.01 | 
C[C@@H](C[C@H]1CC[C@]2(CC1)OC(=O)NN=C2c1ccc(F)cc1Cl)NC(=O)c1cc2ccccc2o1 [Example 46] | 0.012 | < 0.01 | 
C[C@@H](C[C@H]1CC[C@]2(CC1)OC(=O)NN=C2c1ccc(F)cc1Br)NC(=O)c1cnn(C)c1 [Example 219] | < 0.01 | < 0.01 | 
C[C@@H](C[C@H]1CC[C@]2(CC1)OC(=O)NN=C2c1ccc(F)cc1Br)NC(=O)C(F)Cl (mixture of isomers) [Example 278] | 0.246 | 1.18 | 
CNC(=O)C(=O)N[C@@H](C)C[C@H]1CC[C@]2(CC1)OC(=O)NN=C2c1cnc(C(N)=O)cc1C [Example 187] | 0.222 | 0.455 | 
CNC(=O)C(=O)N[C@@H](C)C[C@H]1CC[C@]2(CC1)OC(=O)NN=C2c1cnc(C#N)cc1C [Example 188] | 0.044 | 0.033 | 
CNC(=O)C(=O)N[C@@H](C)C[C@H]1CC[C@]2(CC1)OC(=O)NN=C2c1cnccc1C [Example 112] | 0.031 | 0.02 | 
CNC(=O)C(=O)N[C@@H](C)C[C@H]1CC[C@]2(CC1)OC(=O)NN=C2c1ccc(F)cc1C [Example 55] | 0.015 | < 0.01 | 
Cc1cc(C(=O)N[C@@H](C)C[C@H]2CC[C@]3(CC2)OC(=O)NN=C3c2ccc(F)cc2Cl)[nH]n1 [Example 45] | 0.027 | 0.023 | 
CNC(=O)C(=O)N[C@@H](C)C[C@H]1CC[C@]2(CC1)OC(=O)NN=C2c1cc(C(F)(F)F)ncc1Br [Example 2-075] | 0.016 | < 0.01 | 
CC(C)c1cc(F)ccc1C1=NNC(=O)O[C@]12CC[C@@H](C[C@H](C)NC(=O)c1cc(Cl)no1)CC2 [Example 134] | 0.021 | 0.03 | 
C[C@@H](CN1CCC2(CC1)OC(=O)NN=C2c1ccc(C#N)cc1Br)NC(=O)C(=O)NC1CC1 [Example 2-064] | 0.027 | 0.011 | 
C[C@@H](CN1CCC2(CC1)OC(=O)NN=C2c1cc(C#N)ccc1Br)NC(=O)/C=C/C(=O)ON1C(=O)CCC1=O [Example 2-042] | 3.02 | 0.383 | 
CNC(=O)C(=O)N[C@@H](C)C[C@H]1CC[C@]2(CC1)OC(=O)NN=C2c1cccc2c1OC(F)(F)O2 [Example 118] | 0.05 | 0.073 | 
Cc1cc(C(=O)N[C@@H](C)C[C@H]2CC[C@]3(CC2)OC(=O)NN=C3c2cnc(Cl)cc2N2CCOCC2)[nH]n1 [Example 225] | 0.513 | 0.203 | 
CNC(=O)C(=O)N[C@@H](C)C[C@H]1CC[C@]2(CC1)OC(=O)NN=C2c1ccc(C#N)cc1Cl [Example 175] | 0.021 | 0.015 | 
Cc1cc(C(=O)N[C@@H](C)C[C@H]2CC[C@]3(CC2)OC(=O)NN=C3c2cnc(N3CC4CCC(C3)O4)cc2Cl)[nH]n1 [Example 247] | 0.014 | < 0.01 | 
CNC(=O)C(=O)N[C@@H](C)C[C@H]1CC[C@]2(CC1)OC(=O)NN=C2c1cc(C(=O)NC)ccc1Br [Example 2-035] | 0.021 | < 0.01 | 
CNC(=O)C(=O)N[C@@H](C)C[C@H]1CC[C@]2(CC1)OC(=O)NN=C2c1ccc(F)cc1OC [Example 54] | 0.02 | < 0.01 | 
CNC(=O)C(=O)N[C@@H](C)CN1CCC2(CC1)OC(=O)NN=C2c1cc(Br)c(F)cc1Cl [Example 2-015] | 0.026 | 0.012 | 
CNC(=O)C(=O)N[C@@H](C)C[C@H]1CC[C@]2(CC1)OC(=O)NN=C2c1ccc(S(=O)(=O)C(C)C)cc1Br [Example 66] | 0.016 | < 0.01 | 
CNC(=O)C(=O)N[C@@H](C)C[C@]1(C#N)CC[C@@]2(CC1)OC(=O)NN=C2c1cc(OCC(F)F)ncc1Br [Example 2-099] |  |  | inhibition at 10 µM (full-length human PLD1; read-out: human PLD1 % inhibition at 10 μM): 21%; inhibition at 10 µM (full-length human PLD1; read-out: inhibition rate of PLD1 at 10 μM compound): 21%
CNC(=O)C(=O)N[C@@H](C)C[C@]1(C#N)CC[C@@]2(CC1)OC(=O)N(C)N=C2c1cc(C#N)ccc1Br [Example 2-112] |  |  | inhibition at 10 µM (full-length human PLD2; read-out: human PLD2 % inhibition at 10 μM): 39%; inhibition at 10 µM (full-length human PLD2; read-out: inhibition rate of PLD2 at 10 μM compound): 39%
